Test results taken from patent US20160151369A1, “SUBSTITUTED 3-PHENYLPROPYLAMINE DERIVATIVES FOR THE TREATMENT OF OPHTHALMIC DISEASES AND DISORDERS” (ACUCELA INC., priority 2013, published 2016).
Read-outs that look alike come from different tables or passages of the source.

How the values were obtained:
[1] = test system: retinal isomerase activity (regeneration of 11-cis-retinal); assay: Comparative in vivo murine isomerase assay, dose response (compound A vs compound D); parameters: species or system BALB/c mice
Method: (§1) All test compounds were stored at room temperature, dessicated.
On the day prior to dose administration compound A and compound D were weighed into new empty glass vials. The compounds were dissolved in di-water at the concentration of 0.833 mg/mL compound A and 0.892 mg/mL compound D, serially diluted into various concentrations, and stored overnight at 4 OC.
56 Male BALB/c mice (Charles River Laboratories) were used for this study. The mice were approximately 8 weeks at the initiation of dosing with an average body weight of 24 grams.
The day prior to dose administration 56 BALB/c mice were placed into a dark room and dark adapted for a minimum of 12 hours prior to dose administration. The mice were maintained in the dark for the duration of the study.
Each animal was removed from its cage and dosed accordingly to the study design in Table 4 (see below). Each animal was administered 0.1 mL of the appropriate compound or vehicle via oral gavage using a 1 mL syringe fitted with a 23 gauge oral gavage needle. Two hours following dose administration, animals were removed from the dark and exposed to 5000 Lux white light for 10 minutes to photobleach their eyes.
Following the completion of the photobleach the animals were returned to the dark for 2 hours to allow for the regeneration of 11-cis-retinal in the eyes. Two hours after photobleaching each animal was euthanized with carbon dioxide followed by cervical dislocation, in the dark under red light. The light control group was euthanized immediately following photobleaching. Immediately following the cervical dislocation both eyes of each animal were removed and transferred into separate tubes, flash frozen in liquid nitrogen and stored in the dark at −80° C. until processing and analysis.
(§2) All sample processing procedures were performed in the dark under red light.
Extracted samples were analyzed using an Agilent 1100 HPLC system according to the procedure outlined in Table 6 (see below)
(§3) HPLC analysis of the eyes measures the peak area units of the 110 cis-Ral-Oxime_syn. Signal.
(§4) Data analysis % inhibition (drug vs. recovery control). % control (drug vs. light control), and One-way ANOVA (followed by Tukey's Multiple Comparison) were performed using peak area units and performed by Prism software. Data are represented as mean and standard deviation.

[2] = test system: regeneration of 11-cis-retinal (isomerase); assay: Single dose time course in the in vivo isomerase assay at 0.3 mg/kg (compound A vs compound D); conditions: BALB/c mice, single oral dose 0.3 mg/kg; for inhibition at 0.3 mg/kg: Mus musculus, read-out: Percent Inhibition, 0.3 mg/kg, Avg. % Inhibition
Method: as §1
On the day prior to dose administration 3-amino-1-(3-((tetrahydro-2H-pyran-4-yl)methoxy)phenyl)propan-1-ol (compound A) and 3-amino-1-(3-((tetrahydro-2H-pyran- 2-yl)methoxy)phenyl)propan-1-ol (compound D) were weighed into new empty glass vials. The compounds were dissolved in di-water at the concentration of 0.068 mg/mL and stored overnight at 4° C.
52 Male BALB/c mice (Charles River Laboratories) were used for this study. The mice were approximately 8 weeks at the initiation of dosing with an average body weight of 23 grams.
The day prior to dose administration 52 BALB/c mice were placed into a dark room and dark adapted for a minimum of 12 hours prior to dose administration. The mice were maintained in the dark for the duration of the study.
Each animal was removed from its cage and dosed accordingly to the study design in Table 10 (see below). Each animal was administered 0.1 mL of the appropriate test article or vehicle orally using a 1 mL syringe fitted with a 23 gauge oral gavage needle. At 2, 4, 6, 8, 16 or 24 hours following dose administration, animals were removed from the dark and exposed to 5000 Lux white light for 10 minutes to photobleach their eyes. Following the completion of the photobleach the animals were returned to the dark for 2 hours to allow for the regeneration of 11-cis-retinal in the eyes. Two hours after photobleaching each animal was euthanized with carbon dioxide followed by cervical dislocation, in the dark under red light. The light control group was euthanized immediately following photobleaching. Immediately following the cervical dislocation both eyes of each animal were removed and transferred into separate tubes, flash frozen in liquid nitrogen and stored in the dark at −80° C. until processing and analysis.
as §2
Extracted samples were analyzed using an Agilent 1100 HPLC system according to the procedure outlined in Table 12 (see below)
as §3, §4

[3] = test system: isomerase (recovery of 11-cis-retinal after bleaching); assay: In vivo murine isomerase assay (Table 3); conditions: Mus musculus, po, mice
Method: The capability of compounds described herein to inhibit isomerase was determined by an in vivo murine isomerase assay. […] The recovery of 11-cis-retinal after bleaching can be used to estimate the activity of isomerase in vivo. Delayed recovery, as represented by lower 11-cis-retinal oxime levels, indicates inhibition of isomerization reaction.
Mice were gavaged with the test compound. […] The mice were allowed to recover 2 hours in the dark. The animals were then sacrificed by carbon dioxide inhalation. Retinoids were extracted from the eye and the regeneration of 11-cis-retinal was assessed at various time intervals.
After the mice were sacrificed, the eyes were immediately removed and placed in liquid nitrogen for storage.
The eyes were placed in 500 μL of bis-tris propane buffer (10 mM, pH˜7.3) and 20 μL of 0.8M hydroxile amine (pH˜7.3). The eyes were cut up into small pieces with small iris scissors and then thoroughly homogenized at 30000 rpm with a mechanical homogenizer (Polytron PT 1300 D) in the tube until no visible tissue remained. 500 μL of methanol and 500 μL of heptane were added to each tube. The tubes were attached to a vortexer so that the contents were mixed thoroughly for 15 minutes in room temperature. The organic phase was separated from the aqueous phase by centrifugation for 10 min at 13K rpm, 4° C. 240 μL of the solution from the top layer (organic phase) was removed and transferred to clean 300 μl glass inserts in HPLC vials using glass pipette and the vials were crimped shut tightly.
The samples were analyzed on an Agilent 1100 HPLC system with normal phase column: SILICA (Beckman Coutlier, dp 5 μm, 4.6 mM×250 mM). […] Loading volume for each sample was 100 μl; detection wavelength was 360 nm. The area under the curve for 11-cis retinal oxime was calculated by Agilent Chemstation software and was recorded manually. Data processing was performed using Prizm software.
Positive control mice (no compound administered) were sacrificed fully dark-adapted and the eye retinoids analyzed. Light (bleached) control mice (no compound administered) were sacrificed and retinoids isolated and analyzed immediately after light treatment.
A time course study was performed to determine the isomerase inhibitory activity of the test compound. […] The animals were then “photo-bleached” (5000 Lux white light for 10 minutes) at 2, 4, 8, 16 and 24 hours after dosing, and returned to darkness to allow recovery of the 11-cis-retinal content of the eyes. Mice were sacrificed 2 hours after bleaching, eyes were enucleated, and retinoid content is analyzed by HPLC.
Recovery control mice (vehicle-only treated) were light-treated and left to recover for 2 hours in the dark before sacrifice and analysis. Light control mice (vehicle only treated) were sacrificed for analysis immediately after photo-bleaching.
An in vivo dose response isomerase inhibition study was performed with test compound. […] Recovery and retinoid analysis were performed as described above. Dark control mice were vehicle-only treated, sacrificed fully dark adapted without light treatment, and analyzed. Recovery control mice and light control mice were included in the study as per the initial phase.

dose at which 11-cis-retinal recovery was inhibited by 50% (called IC50) ([1]; BALB/c mice, single oral dose, 2 h, dose response experiment): 0.17 mg/kg
SMILES: NCC[C@@H](O)c1cccc(OCC2CCOCC2)c1 [Example 1]
inhibition at 0.03 mg/kg ([1]; Mus musculus, po, 2 h, BALB/c mice, single oral dose 0.03 mg/kg, bleach 2 h after dose, drug vs. recovery control, read-out: Percent Inhibition at 2 Hours, Avg. % Inhibition): -44.1% | inhibition at 0.1 mg/kg ([1]; Mus musculus, po, 2 h, BALB/c mice, single oral dose 0.1 mg/kg, bleach 2 h after dose, drug vs. recovery control, read-out: Percent Inhibition at 2 Hours, Avg. % Inhibition): -9.8% | inhibition at 0.3 mg/kg ([1]; Mus musculus, po, 2 h, BALB/c mice, single oral dose 0.3 mg/kg, bleach 2 h after dose, drug vs. recovery control, read-out: Percent Inhibition at 2 Hours, Avg. % Inhibition): > 90% | inhibition at 0.5 mg/kg ([1]; Mus musculus, po, 2 h, BALB/c mice, single oral dose 0.5 mg/kg, bleach 2 h after dose, drug vs. recovery control, read-out: Percent Inhibition at 2 Hours, Avg. % Inhibition): ~100% | inhibition at 1 mg/kg ([1]; Mus musculus, po, 2 h, BALB/c mice, single oral dose 1 mg/kg, bleach 2 h after dose, drug vs. recovery control, read-out: Percent Inhibition at 2 Hours, Avg. % Inhibition): 100% | inhibition at 3 mg/kg ([1]; Mus musculus, po, 2 h, BALB/c mice, single oral dose 3 mg/kg, bleach 2 h after dose, drug vs. recovery control, read-out: Percent Inhibition at 2 Hours, Avg. % Inhibition): 105% | activity at 0.03 mg/kg ([1]; Mus musculus, BALB/c mice, single oral dose 0.03 mg/kg, bleach 2 h after dose, read-out: Percent control at 2 Hours (Avg. % Inhibition)): 144% | activity at 0.1 mg/kg ([1]; Mus musculus, BALB/c mice, single oral dose 0.1 mg/kg, bleach 2 h after dose, read-out: Percent control at 2 Hours (Avg. % Inhibition)): 110% | activity at 0.3 mg/kg ([1]; Mus musculus, BALB/c mice, single oral dose 0.3 mg/kg, bleach 2 h after dose, read-out: Percent control at 2 Hours (Avg. % Inhibition)): 7.6% | activity at 0.5 mg/kg ([1]; Mus musculus, BALB/c mice, single oral dose 0.5 mg/kg, bleach 2 h after dose, read-out: Percent control at 2 Hours (Avg. % Inhibition)): 0.7% | activity at 1 mg/kg ([1]; Mus musculus, BALB/c mice, single oral dose 1 mg/kg, bleach 2 h after dose, read-out: Percent control at 2 Hours (Avg. % Inhibition)): -0.4% | activity at 3 mg/kg ([1]; Mus musculus, BALB/c mice, single oral dose 3 mg/kg, bleach 2 h after dose, read-out: Percent control at 2 Hours (Avg. % Inhibition)): -5.2% | dose showing nearly 100% inhibition ([1]; dose response experiment, 2 h): 0.5 mg/kg | times more active than compound D, by dose for nearly 100% inhibition ([1]; dose response experiment, 2 h): approximately 6 × | times more active than compound D, by inhibition at a dose of 0.3 mg/kg ([1]; dose response experiment, 2 h): greater than 10 × | Percent Control, 0.3 mg/kg (average) ([2]; Time Point 2 Hours): 2.0% | Percent Control, 0.3 mg/kg (average) ([2]; Time Point 4 Hours): 11.5% | Percent Control, 0.3 mg/kg (average) ([2]; Time Point 6 Hours): 43.7% | Percent Control, 0.3 mg/kg (average) ([2]; Time Point 8 Hours): 79.8% | Percent Control, 0.3 mg/kg (average) ([2]; Time Point 16 Hours): 98.5% | Percent Control, 0.3 mg/kg (average) ([2]; Time Point 24 Hours): 95.8% | inhibition at 0.3 mg/kg ([2]; Time Point 2 Hours): 98% | inhibition at 0.3 mg/kg ([2]; Time Point 4 Hours): 88.5% | inhibition at 0.3 mg/kg ([2]; Time Point 6 Hours): 56.3% | inhibition at 0.3 mg/kg ([2]; Time Point 8 Hours): 20.2% | inhibition at 0.3 mg/kg ([2]; Time Point 16 Hours): 1.5% | inhibition at 0.3 mg/kg ([2]; Time Point 24 Hours): 4.2% | inhibition at 0.03 mg/kg ([3]; 2 h, Dose 0.03 mg/kg): -2.7% | inhibition at 0.1 mg/kg ([3]; 2 h, Dose 0.1 mg/kg): 3.4% | inhibition at 0.3 mg/kg ([3]; 2 h): 58.4% | inhibition at 0.5 mg/kg ([3]; 2 h, Dose 0.5 mg/kg): 89.9% | inhibition at 0.81 mg/kg ([3]; 2 h): 98.2% | inhibition at 1 mg/kg ([3]; 2 h): 96.9% | inhibition at 3 mg/kg ([3]; 2 h, Dose 3 mg/kg): 101% | inhibition at 0.3 mg/kg ([3]; 4 h): 15.7% | inhibition at 0.81 mg/kg ([3]; 4 h): 87.9% | inhibition at 1 mg/kg ([3]; 4 h): 91.1% | inhibition at 0.81 mg/kg ([3]; 6 h): 75.8% | inhibition at 0.3 mg/kg ([3]; 8 h): 10.4% | inhibition at 0.81 mg/kg ([3]; 8 h): 51.8% | inhibition at 1 mg/kg ([3]; 8 h): 62% | inhibition at 0.3 mg/kg ([3]; 16 h): -2.7% | inhibition at 0.81 mg/kg ([3]; 16 h): 5.5% | inhibition at 1 mg/kg ([3]; 16 h): -1.2% | inhibition at 0.3 mg/kg ([3]; 24 h): -4.4% | inhibition at 0.81 mg/kg ([3]; 24 h): -4.8% | inhibition at 1 mg/kg ([3]; 24 h): 3.8%
